Source: paper PMC7340446, “Optimization of PTH/PTHrP Hybrid Peptides to Derive a Long‐Acting PTH Analog (LA‐PTH)” (JBMR Plus, 2020)
Where no end group is shown, it is not given here.

Legend:
[1] = molecular target: T1, human PTHR1 (R^0 conformation) (Homo sapiens, UniProt Q03431); test: Competition binding to the R^0 conformation of PTHR1
T1 construct: expressed in transfected cells; host or cells: COS-7 cells (transient transfection; membranes)
T1 sequence (Q03431 27-593): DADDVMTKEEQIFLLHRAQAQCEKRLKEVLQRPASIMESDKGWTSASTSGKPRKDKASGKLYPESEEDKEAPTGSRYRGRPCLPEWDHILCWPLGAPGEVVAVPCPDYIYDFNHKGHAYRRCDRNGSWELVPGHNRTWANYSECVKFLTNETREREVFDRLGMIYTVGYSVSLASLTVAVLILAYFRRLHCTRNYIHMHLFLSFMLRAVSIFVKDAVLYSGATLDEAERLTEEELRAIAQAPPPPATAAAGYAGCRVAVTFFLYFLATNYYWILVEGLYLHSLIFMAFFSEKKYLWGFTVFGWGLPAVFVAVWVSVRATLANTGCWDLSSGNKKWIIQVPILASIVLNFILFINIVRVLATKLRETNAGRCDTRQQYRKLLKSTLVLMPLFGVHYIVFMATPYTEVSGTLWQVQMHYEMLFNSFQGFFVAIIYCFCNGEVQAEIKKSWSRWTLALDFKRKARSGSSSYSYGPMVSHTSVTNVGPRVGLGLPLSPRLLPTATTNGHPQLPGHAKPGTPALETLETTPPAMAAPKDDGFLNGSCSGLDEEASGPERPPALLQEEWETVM

[2] = molecular target: T2, human PTHR1 (RG conformation) (Homo sapiens, UniProt Q03431); test: Competition binding to the RG conformation of PTHR1
T2 construct: expressed in transfected cells; host or cells: COS-7 cells (transient co-transfection; membranes)
T2 sequence (Q03431 27-593): T1 sequence (Q03431 27-593)

[3] = molecular target: T3, human PTHR1 (Homo sapiens, UniProt Q03431); test: GloSensor cAMP signaling assay in GP‐2.3 cells; format: cell-based
T3 construct: expressed in transfected cells
T3 sequence (Q03431 27-593): T1 sequence (Q03431 27-593)
Method: GP‐2.3 cells, an HEK‐293 cell‐ (ATCC CRL‐1573) derived cell line that stably expresses the luciferase‐based pGloSensor‐22F (GloSensor) cAMP reporter plasmid (Promega Corp., […], USA) along with the human PTHR1, were cultured in DMEM (Thermo Fisher Scientific, Waltham, MA, USA) supplemented with FBS (10%). Cells were seeded into white 96‐well plates for GloSensor cAMP assays, and used for assay 2 to 3 days after the monolayer became confluent.16 UGS‐56 cells were derived from the UMR106 rat osteoblastic cell line by stably transfecting the cells to express the GloSensor‐cAMP reporter. B64 cells are a derivative of the porcine kidney cell line, LLC‐PK1 that stably expresses the human PTHR1. COS‐7 cells (ATCC CRL‐1661) were seeded into 10‐cm dishes and transiently transfected to express the human PTHR1 with or without a high‐affinity, negative‐dominant Gαs subunit; 2 days after transfection, the cells were harvested for membrane preparations.13 All transfections were performed using the Fugene HD reagent (Promega Corp.).
Changes in cAMP levels were assessed in intact GP‐2.3 or UGS‐56 cells via the (GloSensor) cAMP reporter. The intact cells in white 96‐well plates were preloaded with luciferin in CO2‐independent culture media (Thermo Fisher) for 20 min at room temperature, then treated with a test ligand diluted in the same media and placed into a Envision plate reader (PerkinElmer, Waltham, MA, USA) for an additional 30 min, during which time cAMP‐dependent luminescence was measured at 2‐min intervals (ligand‐on phase). […] For washout responses, the cells were treated as above, and after the ligand‐on phase, the plate was removed from the plate reader, the cells were rinsed with media, then fresh media containing only luciferin was added and luminescence was measured for an additional 90 min (washout phase). EC50 values were determined using the 4‐parameter sigmoidal dose–response equation in Prism 8.0 (GraphPad Software, Inc., La Jolla, CA, USA).
The cells were then removed from the plate reader, rinsed twice with media to remove unbound ligand, and then fresh media containing luciferin but lacking ligand was added and luminescence was assessed for additional 90 min (Ligand wash‐out phase). Data are means (± SEM) of four experiments, each performed in triplicate. Figure S2. […] Panels A‐C represent three separate experiments. […] Figure S3. […] Serum and urine samples obtained from the TPTX and sham control rats of the two‐week daily‐administration experiment shown in Figure 4 were analyzed by ELISA for the indicated markers. A) serum 1,25(OH)2Vitamin‐D3. B) urinary deoxypyridinoline (DpD)/Cre. C) serum FGF23. […] Serum and urine samples obtained from the TPTX and sham control rats of the two‐week daily‐administration experiment shown in Figure 4 were analyzed for total inorganic phosphorus (Pi). […] Figure S5. […] B) The same peptides were assessed at a concentration of 3 nM for the capacity to stimulate cAMP formation in HKRK‐B64 cells (LLC‐PK1 cells stably expressing the hPTHR1, cAMP measured by RIA). […] Data in A and B are means (±SEM) of three experiments, each performed in triplicate or quadruplicate. […] D) The same analogs as in C were assessed at a 3.0 nM concentration for the capacity to stimulate cAMP formation in HKRK‐B64 cells. Data are means (±SEM) of three experiments, each performed in duplicate. […] Data are means (±SEM) of duplicate determinations of a single experiment representative of three others. Click here for additional data file.

[4] = Peptide solubility in aqueous buffers of neutral pH; format: physicochemical; conditions: aqueous buffers at neutral pH; approximate

IC50 [1]: 2.69 ± 0.99 nM
IC50 [2]: 0.67 ± 0.05 nM
Emax [3]: 105 ± 4%
Concentration at which the peptide is poorly soluble [4]: > 300 µg/mL
Sequence: AVAEIQLMHQRAKWIQDLRRRFFLHHLIAEIHTAEI [M‐PTH(1‐14)/PTHrP(15‐36), [Ala^1,3,12,Gln^10,Arg^11,Trp^14]‐PTH(1‐14)/PTHrP(15–36)]
